From patent US12365696B2, “Small-molecule focal adhesion kinase (FAK) inhibitors” (DANA-FARBER CANCER INSTITUTE, INC., priority 2019, dated 2025)

What was measured:
Assay in all cases: KINOMEscan
Assay type in all cases: binding
ACVRL1 = ACVRL1 (Homo sapiens (Human), UniProt P37023); conditions: ACVRL1, 10000 nM; read-out: Percent Control
PIK3CA = PIK3CA (Homo sapiens (Human), UniProt P42336); conditions: 10000 nM, read-out: Percent Control
PRKCH = PRKCH (Homo sapiens (Human), UniProt P24723); conditions: 10000 nM, read-out: Percent Control
PAK6 = PAK6 (Homo sapiens (Human), UniProt Q9NQU5); conditions: PAK6, 10000 nM; read-out: Percent Control
MAP4K2 = MAP4K2 (Homo sapiens (Human), UniProt Q12851); conditions: MAP4K2, 10000 nM; read-out: Percent Control
KIT(V559D, T670I) = KIT(V559D, T670I) (Homo sapiens (Human), UniProt P10721, T670I/V559D); conditions: 10000 nM, read-out: Percent Control
OSR1 = OSR1 (Homo sapiens (Human), UniProt O95747); conditions: OSR1, 10000 nM; read-out: Percent Control
FES = FES (Homo sapiens (Human), UniProt P07332); conditions: 10000 nM, read-out: Percent Control
EGFR(L861Q) = EGFR(L861Q) (Homo sapiens (Human), UniProt P00533, L861Q); conditions: 10000 nM, read-out: Percent Control
FGFR3(G697C) = FGFR3(G697C) (Homo sapiens (Human), UniProt P22607, G697C); conditions: 10000 nM, read-out: Percent Control
RIPK2 = RIPK2 (Homo sapiens (Human), UniProt O43353); conditions: RIPK2, 10000 nM; read-out: Percent Control
DRAK2 = DRAK2 (Homo sapiens (Human), UniProt O94768); conditions: DRAK2, 10000 nM; read-out: Percent Control
BIKE = BIKE (Homo sapiens (Human), UniProt Q9NSY1); conditions: 10000 nM, read-out: Percent Control
GRK7 = GRK7 (Homo sapiens (Human), UniProt Q8WTQ7); conditions: GRK7, 10000 nM; read-out: Percent Control
CSNK1A1L = CSNK1A1L (Homo sapiens (Human), UniProt Q8N752); conditions: 10000 nM, read-out: Percent Control
PIM2 = PIM2 (Homo sapiens (Human), UniProt Q9P1W9); conditions: PIM2, 10000 nM; read-out: Percent Control
ERK5 = ERK5 (Homo sapiens (Human), UniProt Q13164); conditions: ERK5, 10000 nM; read-out: Percent Control
[1] = target: ABL1(E255K)-phosphorylated (Homo sapiens (Human), UniProt P00519, E255K); conditions: 10000 nM, read-out: Percent Control
CAMK1D = CAMK1D (Homo sapiens (Human), UniProt Q8IU85); conditions: 10000 nM, read-out: Percent Control
QSK = QSK (Homo sapiens (Human), UniProt Q9Y2K2); conditions: 10000 nM, read-out: Percent Control
MAP4K4 = MAP4K4 (Homo sapiens (Human), UniProt O95819); conditions: MAP4K4, 10000 nM; read-out: Percent Control
ALK(C1156Y) = ALK(C1156Y) (Homo sapiens (Human), UniProt Q9UM73, C1156Y); conditions: 10000 nM, read-out: Percent Control
[2] = target: RSK2(Kin.Dom.2-C-terminal) (Homo sapiens (Human), UniProt P51812); conditions: 10000 nM, read-out: Percent Control
CDK8 = CDK8 (Homo sapiens (Human), UniProt P49336); conditions: CDK8, 10000 nM; read-out: Percent Control
MLCK = MLCK (Homo sapiens (Human), UniProt Q32MK0); conditions: 10000 nM, read-out: Percent Control
RIPK1 = RIPK1 (Homo sapiens (Human), UniProt Q13546); conditions: RIPK1, 10000 nM; read-out: Percent Control
AKT1 = AKT1 (Homo sapiens (Human), UniProt P31749); conditions: AKT1, 10000 nM; read-out: Percent Control
MAP3K3 = MAP3K3 (Homo sapiens (Human), UniProt Q99759); conditions: MAP3K3, 10000 nM; read-out: Percent Control
KIT(D816H) = KIT(D816H) (Homo sapiens (Human), UniProt P10721, D816H); conditions: 10000 nM, read-out: Percent Control
PIM1 = PIM1 (Homo sapiens (Human), UniProt P11309); conditions: PIM1, 10000 nM; read-out: Percent Control
MAP3K15 = MAP3K15 (Homo sapiens (Human), UniProt Q6ZN16); conditions: MAP3K15, 10000 nM; read-out: Percent Control
TTK = TTK (Homo sapiens (Human), UniProt P33981); conditions: 10000 nM, read-out: Percent Control
TRPM6 = TRPM6 (Homo sapiens (Human), UniProt Q9BX84); conditions: TRPM6, 10000 nM; read-out: Percent Control
HIPK3 = HIPK3 (Homo sapiens (Human), UniProt Q9H422); conditions: HIPK3, 10000 nM; read-out: Percent Control

PIK3CA, sequence (P42336 whole entry): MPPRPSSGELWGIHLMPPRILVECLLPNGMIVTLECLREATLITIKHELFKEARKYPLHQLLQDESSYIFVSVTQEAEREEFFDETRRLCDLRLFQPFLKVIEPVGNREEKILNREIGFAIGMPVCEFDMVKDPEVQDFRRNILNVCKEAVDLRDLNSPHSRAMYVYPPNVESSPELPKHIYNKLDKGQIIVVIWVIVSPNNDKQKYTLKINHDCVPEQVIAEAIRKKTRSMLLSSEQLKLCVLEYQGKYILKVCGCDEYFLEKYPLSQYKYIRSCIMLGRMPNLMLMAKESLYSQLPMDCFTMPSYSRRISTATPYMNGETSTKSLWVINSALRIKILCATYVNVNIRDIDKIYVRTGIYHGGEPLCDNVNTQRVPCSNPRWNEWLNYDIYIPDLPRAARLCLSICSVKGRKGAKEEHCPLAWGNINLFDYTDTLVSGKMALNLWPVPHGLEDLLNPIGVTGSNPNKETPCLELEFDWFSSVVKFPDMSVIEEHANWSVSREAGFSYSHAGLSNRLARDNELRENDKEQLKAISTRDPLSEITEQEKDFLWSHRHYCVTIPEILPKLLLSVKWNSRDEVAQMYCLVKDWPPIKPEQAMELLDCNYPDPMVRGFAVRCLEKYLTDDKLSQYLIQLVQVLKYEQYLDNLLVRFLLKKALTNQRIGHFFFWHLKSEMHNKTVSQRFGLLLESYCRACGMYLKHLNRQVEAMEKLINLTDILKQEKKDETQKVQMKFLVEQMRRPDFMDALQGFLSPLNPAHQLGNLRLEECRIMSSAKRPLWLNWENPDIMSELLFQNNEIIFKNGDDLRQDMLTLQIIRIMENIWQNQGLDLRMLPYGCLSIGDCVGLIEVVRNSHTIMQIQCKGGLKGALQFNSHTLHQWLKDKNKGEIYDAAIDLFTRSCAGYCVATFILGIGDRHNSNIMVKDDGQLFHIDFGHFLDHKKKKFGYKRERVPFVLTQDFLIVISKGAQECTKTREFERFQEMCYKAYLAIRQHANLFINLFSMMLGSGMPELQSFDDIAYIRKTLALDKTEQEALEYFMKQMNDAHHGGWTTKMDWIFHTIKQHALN
MAP4K4, sequence (O95819 whole entry): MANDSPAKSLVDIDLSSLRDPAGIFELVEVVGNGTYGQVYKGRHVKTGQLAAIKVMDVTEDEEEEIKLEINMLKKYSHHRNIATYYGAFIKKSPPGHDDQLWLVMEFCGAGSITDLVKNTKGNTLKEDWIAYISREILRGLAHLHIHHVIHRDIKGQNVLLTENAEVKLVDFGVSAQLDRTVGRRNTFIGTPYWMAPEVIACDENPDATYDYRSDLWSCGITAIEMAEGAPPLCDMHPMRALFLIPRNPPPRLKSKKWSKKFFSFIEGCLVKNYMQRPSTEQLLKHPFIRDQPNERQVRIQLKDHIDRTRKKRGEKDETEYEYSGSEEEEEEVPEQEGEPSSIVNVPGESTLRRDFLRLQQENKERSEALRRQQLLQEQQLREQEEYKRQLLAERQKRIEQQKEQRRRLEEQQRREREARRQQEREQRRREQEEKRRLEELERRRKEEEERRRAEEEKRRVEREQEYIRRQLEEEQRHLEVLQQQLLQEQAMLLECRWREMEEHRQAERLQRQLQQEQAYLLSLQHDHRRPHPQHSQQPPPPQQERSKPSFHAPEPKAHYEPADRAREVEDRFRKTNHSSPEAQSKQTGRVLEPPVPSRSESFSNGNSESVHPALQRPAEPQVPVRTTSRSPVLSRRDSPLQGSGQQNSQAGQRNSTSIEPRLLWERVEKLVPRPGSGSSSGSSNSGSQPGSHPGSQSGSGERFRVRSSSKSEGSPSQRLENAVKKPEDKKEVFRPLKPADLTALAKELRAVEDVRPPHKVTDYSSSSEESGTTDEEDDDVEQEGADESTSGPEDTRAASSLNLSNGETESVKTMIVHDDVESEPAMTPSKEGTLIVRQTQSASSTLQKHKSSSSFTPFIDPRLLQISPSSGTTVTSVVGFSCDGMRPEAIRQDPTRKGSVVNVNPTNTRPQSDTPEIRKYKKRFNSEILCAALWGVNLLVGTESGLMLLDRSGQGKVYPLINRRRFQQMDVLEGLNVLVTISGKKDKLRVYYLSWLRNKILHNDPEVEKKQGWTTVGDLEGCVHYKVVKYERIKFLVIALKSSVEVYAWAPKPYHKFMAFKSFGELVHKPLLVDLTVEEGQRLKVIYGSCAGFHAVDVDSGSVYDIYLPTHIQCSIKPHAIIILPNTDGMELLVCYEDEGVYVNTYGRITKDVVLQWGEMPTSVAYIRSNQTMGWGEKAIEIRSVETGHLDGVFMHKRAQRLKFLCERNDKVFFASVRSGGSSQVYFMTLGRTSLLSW
TTK, sequence (P33981 whole entry): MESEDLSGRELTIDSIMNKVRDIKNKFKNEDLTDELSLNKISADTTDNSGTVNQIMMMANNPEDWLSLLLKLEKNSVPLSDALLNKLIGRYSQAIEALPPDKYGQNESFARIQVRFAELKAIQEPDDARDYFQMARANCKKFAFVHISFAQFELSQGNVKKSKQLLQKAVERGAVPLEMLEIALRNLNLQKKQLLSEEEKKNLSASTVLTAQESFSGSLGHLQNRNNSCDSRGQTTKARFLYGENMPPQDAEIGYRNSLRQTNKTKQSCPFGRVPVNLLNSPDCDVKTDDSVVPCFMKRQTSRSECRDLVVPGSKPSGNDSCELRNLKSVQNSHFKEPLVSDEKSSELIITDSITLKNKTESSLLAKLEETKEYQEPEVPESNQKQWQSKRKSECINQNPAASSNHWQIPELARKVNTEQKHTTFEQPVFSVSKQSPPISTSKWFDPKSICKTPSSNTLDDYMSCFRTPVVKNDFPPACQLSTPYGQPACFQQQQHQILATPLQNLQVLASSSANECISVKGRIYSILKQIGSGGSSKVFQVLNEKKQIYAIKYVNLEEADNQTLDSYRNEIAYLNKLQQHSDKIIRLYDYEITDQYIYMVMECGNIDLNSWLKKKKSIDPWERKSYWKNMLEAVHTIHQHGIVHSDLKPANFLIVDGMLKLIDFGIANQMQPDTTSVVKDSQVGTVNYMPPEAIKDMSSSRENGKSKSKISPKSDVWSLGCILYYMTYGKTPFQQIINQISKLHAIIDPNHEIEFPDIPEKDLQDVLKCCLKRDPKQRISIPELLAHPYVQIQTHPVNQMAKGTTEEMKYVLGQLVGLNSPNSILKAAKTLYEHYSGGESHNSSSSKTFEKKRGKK
CDK8, sequence (P49336 whole entry): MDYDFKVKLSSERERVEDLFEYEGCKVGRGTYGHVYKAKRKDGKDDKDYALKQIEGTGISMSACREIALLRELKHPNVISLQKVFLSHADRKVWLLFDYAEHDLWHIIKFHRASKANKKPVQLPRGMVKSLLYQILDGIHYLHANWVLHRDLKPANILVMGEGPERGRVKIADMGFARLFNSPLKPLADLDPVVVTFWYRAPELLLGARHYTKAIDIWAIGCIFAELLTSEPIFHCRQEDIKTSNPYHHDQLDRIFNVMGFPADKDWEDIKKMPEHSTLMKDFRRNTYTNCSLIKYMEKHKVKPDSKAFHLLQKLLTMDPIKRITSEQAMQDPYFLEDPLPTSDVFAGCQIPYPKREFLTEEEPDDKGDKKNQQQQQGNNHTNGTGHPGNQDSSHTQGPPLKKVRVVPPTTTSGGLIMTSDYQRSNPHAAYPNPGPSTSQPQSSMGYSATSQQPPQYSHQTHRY
RIPK1, sequence (Q13546 whole entry): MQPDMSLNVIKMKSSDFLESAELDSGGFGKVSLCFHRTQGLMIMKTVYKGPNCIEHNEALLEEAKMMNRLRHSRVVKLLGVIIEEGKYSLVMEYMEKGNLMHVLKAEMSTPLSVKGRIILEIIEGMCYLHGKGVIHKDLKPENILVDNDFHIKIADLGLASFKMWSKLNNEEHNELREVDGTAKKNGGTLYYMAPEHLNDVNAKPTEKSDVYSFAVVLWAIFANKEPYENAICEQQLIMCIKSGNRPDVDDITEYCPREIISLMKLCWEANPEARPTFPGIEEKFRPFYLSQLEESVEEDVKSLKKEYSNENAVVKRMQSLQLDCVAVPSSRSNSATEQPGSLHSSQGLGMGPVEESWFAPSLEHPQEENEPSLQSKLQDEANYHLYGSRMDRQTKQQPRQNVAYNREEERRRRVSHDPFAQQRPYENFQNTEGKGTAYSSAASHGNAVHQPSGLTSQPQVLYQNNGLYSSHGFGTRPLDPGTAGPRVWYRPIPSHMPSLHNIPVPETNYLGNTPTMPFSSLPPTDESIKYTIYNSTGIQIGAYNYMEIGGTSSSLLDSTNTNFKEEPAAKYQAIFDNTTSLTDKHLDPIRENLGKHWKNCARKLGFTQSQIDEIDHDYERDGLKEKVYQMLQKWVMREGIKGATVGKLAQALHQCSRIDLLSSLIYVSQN
MAP3K3, sequence (Q99759 whole entry): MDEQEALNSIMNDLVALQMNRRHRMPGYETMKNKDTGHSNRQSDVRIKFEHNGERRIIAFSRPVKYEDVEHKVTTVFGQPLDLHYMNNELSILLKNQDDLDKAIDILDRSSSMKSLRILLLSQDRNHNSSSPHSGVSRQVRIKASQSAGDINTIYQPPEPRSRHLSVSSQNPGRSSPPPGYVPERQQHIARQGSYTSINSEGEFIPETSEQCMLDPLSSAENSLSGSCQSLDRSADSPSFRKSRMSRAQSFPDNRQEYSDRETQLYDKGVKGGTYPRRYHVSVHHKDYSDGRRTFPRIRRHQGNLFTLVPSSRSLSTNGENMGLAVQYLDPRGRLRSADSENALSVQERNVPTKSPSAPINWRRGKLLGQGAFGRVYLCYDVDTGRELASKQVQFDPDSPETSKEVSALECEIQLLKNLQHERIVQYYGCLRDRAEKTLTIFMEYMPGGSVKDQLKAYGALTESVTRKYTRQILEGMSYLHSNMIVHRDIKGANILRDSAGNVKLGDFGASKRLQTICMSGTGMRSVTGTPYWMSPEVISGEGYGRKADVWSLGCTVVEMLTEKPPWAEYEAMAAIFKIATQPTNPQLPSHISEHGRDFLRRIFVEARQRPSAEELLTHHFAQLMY

SMILES	remaining binding at 10 µM (ACVRL1)	remaining binding at 10 µM (PIK3CA)	remaining binding at 10 µM (PRKCH)	remaining binding at 10 µM (PAK6)	remaining binding at 10 µM (MAP4K2)	remaining binding at 10 µM (KIT(V559D, T670I))	remaining binding at 10 µM (OSR1)	remaining binding at 10 µM (FES)	remaining binding at 10 µM (EGFR(L861Q))	remaining binding at 10 µM (FGFR3(G697C))	remaining binding at 10 µM (RIPK2)	remaining binding at 10 µM (DRAK2)	remaining binding at 10 µM (BIKE)	remaining binding at 10 µM (GRK7)	remaining binding at 10 µM (CSNK1A1L)	remaining binding at 10 µM (PIM2)	remaining binding at 10 µM (ERK5)	remaining binding at 10 µM [1]	remaining binding at 10 µM (CAMK1D)	remaining binding at 10 µM (QSK)	other results
COc1cc(N2CCC(N3CCN(C)CC3)CC2)ccc1Nc1ncc2c(n1)N(C)c1sc(C)nc1C(=O)N2 [Compound 3, 6-((2-methoxy-4-(4-(4-methylpiperazin-1-yl)piperidin-1-yl)phenyl)amino)-2,4-dimethyl-4,9-dihydro-10H-pyrimido[5,4-b]thiazolo[5,4-e][1,4]diazepin-10-one]	96%	100%	89%	97%	100%	86%	100%	81%	38%	78%	88%	100%	73%	97%	78%	92%	80%	17%	98%	100%	remaining binding at 10 µM (MAP4K4): 79%; remaining binding at 10 µM (ALK(C1156Y)): 100%; remaining binding at 10 µM [2]: 100%; remaining binding at 10 µM (CDK8): 78%; remaining binding at 10 µM (MLCK): 94%; remaining binding at 10 µM (RIPK1): 100%; remaining binding at 10 µM (AKT1): 89%; remaining binding at 10 µM (MAP3K3): 100%; remaining binding at 10 µM (KIT(D816H)): 22%; remaining binding at 10 µM (PIM1): 70%; remaining binding at 10 µM (MAP3K15): 90%; remaining binding at 10 µM (TTK): 51%; remaining binding at 10 µM (TRPM6): 100%; remaining binding at 10 µM (HIPK3): 100%
COc1cc(N2CCC(N3CCN(C)CC3)CC2)ccc1Nc1ncc2c(n1)N(C)c1sc(C)nc1C(=O)N2C [Compound 5, 6-((2-methoxy-4-(4-(4-methylpiperazin-1-yl)piperidin-1-yl)phenyl)amino)-2,4,9-trimethyl-4,9-dihydro-10H-pyrimido[5,4-b]thiazolo[5,4-e][1,4]diazepin-10-one]	99%	100%	94%	100%	94%	95%	100%	97%	100%	100%	95%	100%	100%	100%	100%	100%	30%	100%	86%	94%	remaining binding at 10 µM (MAP4K4): 100%; remaining binding at 10 µM (ALK(C1156Y)): 89%; remaining binding at 10 µM [2]: 99%; remaining binding at 10 µM (CDK8): 100%; remaining binding at 10 µM (MLCK): 100%; remaining binding at 10 µM (RIPK1): 96%; remaining binding at 10 µM (AKT1): 100%; remaining binding at 10 µM (MAP3K3): 100%; remaining binding at 10 µM (KIT(D816H)): 100%; remaining binding at 10 µM (PIM1): 97%; remaining binding at 10 µM (MAP3K15): 84%; remaining binding at 10 µM (TTK): 6.9%; remaining binding at 10 µM (TRPM6): 92%; remaining binding at 10 µM (HIPK3): 100%
